Assays:
[1] = target: wild-type MphR (MphR(A), macrolide biosensor transcription factor), SEQ ID NO: 2 (gene SEQ ID NO: 1, 28) (Escherichia coli, UniProt Q9EVJ6); test: cell-based; settings: for activation of GFP expression under control of WT MphR: result in words
Description: (§1) The sensitivity of biosensors often requires tailoring to meet specific needs. […] A library of MphR gene mutations and variants was created by error-prone PCR (epPCR).
Molecular Biosystems. […] Previous literature reports various induction ranges for MphR-based biosensors depending on the plasmid construct.
Three and five site saturation mutagenesis libraries of the MphR gene that targeted residues of the ligand binding domain were generated using the Quikchange Multi Site-Directed mutagenesis kit (Agilent) and designated QCMS3 and QCMS5, respectively. A third library was generated via error-prone PCR (epPCR) with an average of two amino acid mutations per library clone. Libraries were transformed into E. coli TOP10 cells with plasmid pJZ12 (See FIG. 16 and sequence below) containing genes MphA and mrx and subjected to an initial round of negative sorting in the absence of added ligand via Fluorescence Activated Cell Sorting (FACS) to eliminate variants that are constitutively expressing GFP.
In Table 1, Hill functions were used to derive biosensor transfer functions. K1/2 is the inducer concentration at half maximal induction. Cooperativity is derived from the Hill function to indicate cooperative ligand binding between protein monomers of the MphR dimer. […] The linear range of detection is the linear portion of the dose-response curve with a slope R^2=0.95 or higher.

[2] = target: MphR variant S106F (pikB1, D3; SEQ ID NO: 10, 38) (Escherichia coli, UniProt Q9EVJ6, S106F); test: cell-based; assay type: cell-based; settings: for times more sensitive vs. WT: Table 11
Description: as §1
To test this, the aglycone 6-deoxyerythronolide B (6dEB) was produced via an engineered E. coli strain and purified by flash chromatography. […] To extend this to other systems, the ability of MphR was examined to detect macrolide antibiotics from S. venezuelae.
The ability of the MphR clone “PikB1” to detect a Solithromycin biosynthetic intermediate (see structure below) was determined.

[3] = target: T1, MphR variant A16T/T154M/M155K (M2D6; SEQ ID NO: 16, 44) (Escherichia coli, UniProt Q9EVJ6, A16T/M155K/T154M); test: MphR-GFP biosensor dose-response, M2D6; assay type: cell-based; settings: result in words
T1 construct: GFP under PmphR as reporter
Description: In many cases, it is necessary to determine the presence and concentration of a given polyketide in the presence of other structurally related molecules. Accordingly, the selectivity of MphR requires tailoring towards target molecules.

[4] = target: T2, MphR variant A16T/T154M/M155K with E7 RBS mutation (M2D6-E7RBS) (Escherichia coli, UniProt Q9EVJ6, A16T/M155K/T154M); test: MphR-GFP biosensor dose-response, M2D6-E7RBS; assay type: cell-based
T2 construct: E. coli GFP biosensor

[5] = target: MphR variant R122T (Escherichia coli, UniProt Q9EVJ6, R122T); test: MphR-GFP biosensor dose-response, R122T; assay type: cell-based; settings: for Hill coefficient: Table 8
[6] = target: T3, MphR variant T27G/Q65M (QCMS5B4; SEQ ID NO: 8, 36) (Escherichia coli, UniProt Q9EVJ6, Q65M/T17G); test: MphR-GFP biosensor dose-response, clone T27G/Q65M; assay type: cell-based
T3 construct: E. coli TOP10 cells with plasmid pJZ12
Description: (§2) In Table 1, Hill functions were used to derive biosensor transfer functions. K1/2 is the inducer concentration at half maximal induction. Cooperativity is derived from the Hill function to indicate cooperative ligand binding between protein monomers of the MphR dimer. Dynamic range is the GFP maximal response minus the minimum GFP response, which in all cases was the response with no ligand. The linear range of detection is the linear portion of the dose-response curve with a slope R^2=0.95 or higher.

[7] = target: T4, wild-type MphR with mutated RBS CTGAGGT (smRBS1G6) (Escherichia coli, UniProt Q9EVJ6); test: MphR-GFP biosensor dose-response, smRBS1G6; assay type: cell-based; settings: Table 4
T4 construct: GFP reporter in E. coli
Description: as §1

[8] = target: T5, MphR variant G76C (clone A3/epA3; nt A1G in RBS, aa G76C; SEQ ID NO: 3, 29) (Escherichia coli, UniProt Q9EVJ6, G76C); test: MphR-GFP biosensor dose-response, clone G76C (A3); assay type: cell-based; settings: Table 1
T5 construct: pMLGFP-derived plasmid, E. coli TOP10 GFP biosensor
Description: (§3) K1/2 is the inducer concentration at half maximal induction. Cooperativity is derived from the Hill function to indicate cooperative ligand binding between protein monomers of the MphR dimer. Dynamic range is the GFP maximal response minus the minimum GFP response, which in all cases was the response with no ligand. The linear range of detection is the linear portion of the dose-response curve with a slope R^2=0.95 or higher.

[9] = tested on: MphR variant G76C (clone A3/epA3; nt A1G in RBS, aa G76C; SEQ ID NO: 3, 29); test: MphR-GFP biosensor dose-response, clone G76C (A3); assay type: cell-based, Escherichia coli; settings: Table 11
Description: as §3

[10] = target: T6, wild-type MphR with RBS mutations A1T/G2T/A3C (smRBS1A1, RBS TTCAGGT; SEQ ID NO: 53) (Escherichia coli, UniProt Q9EVJ6); test: MphR-GFP biosensor dose-response, smRBS1A1; assay type: cell-based
T6 construct: GFP reporter in E. coli
Description: as §1

[11] = target: T7, MphR variant T27A/M59E (QCMS5D7; SEQ ID NO: 9, 37) (Escherichia coli, UniProt Q9EVJ6, M59E/T17A); test: MphR-GFP biosensor dose-response, clone T27A/M59E; assay type: cell-based; settings: Table 1
T7 construct: E. coli TOP10 GFP biosensor
Description: as §2

[12] = tested on: MphR variant T27A/M59E (QCMS5D7; SEQ ID NO: 9, 37); test: MphR-GFP biosensor dose-response, clone T27A/M59E; assay type: cell-based, Escherichia coli; settings: Table 11
Description: as §2

[13] = target: T8, MphR variant T17R (QCMS3D6; SEQ ID NO: 6, 34) (Escherichia coli, UniProt Q9EVJ6, T17R); test: MphR-GFP biosensor dose-response, clone T17R; assay type: cell-based
T8 construct: E. coli TOP10 GFP biosensor
Description: as §2

[14] = tested on: MphR variant V90I (clone E7/epE7; nt A4T in RBS, aa V90I; SEQ ID NO: 4, 30); test: MphR-GFP biosensor dose-response, clone V90I (E7); assay type: cell-based, Escherichia coli; settings: Table 11
Description: as §3

[15] = target: T9, MphR variant V90I (clone E7/epE7; nt A4T in RBS, aa V90I; SEQ ID NO: 4, 30) (Escherichia coli, UniProt Q9EVJ6, V90I); test: MphR-GFP biosensor dose-response, clone V90I (E7); assay type: cell-based; settings: Table 1
T9 construct: E. coli TOP10 with pJZ12
Description: as §3

[16] = target: T10, wild-type MphR with mutated RBS AAAGGTT (smRBS2E1; SEQ ID NO: 55) (Escherichia coli, UniProt Q9EVJ6); test: MphR-GFP biosensor dose-response, smRBS2E1; assay type: cell-based; settings: Table 4
T10 construct: GFP reporter in E. coli
Description: as §1

[17] = target: T11, wild-type MphR with E7 ribosome binding site mutation only (WT E7-RBS; SEQ ID NO: 32) (Escherichia coli, UniProt Q9EVJ6); test: cell-based
T11 construct: GFP reporter in E. coli
Description: as §1
To confirm this, new versions of A3 and E7 were constructed that either only included the RBS mutations or the amino acids for each clone.

## CC[C@H]1OC(=O)[C@H](C)[C@@H](O)[C@H](C)[C@@H](O)[C@@H](C)C[C@@H](C)C(=O)[C@H](C)[C@@H](O)[C@H]1C [Compound 6dEB, 6-deoxyerythronolide B]
[1]
  activation of GFP expression under control of WT MphR: failed to activate GFP expression

## CC[C@H]1OC(=O)[C@H](C)[C@@H](O)[C@@H](C)C[C@@H](C)C(=O)/C=C/[C@H]1C [Compound 10-DML, 10-deoxymethynolide]
[2]; result in words, FIG. 4C
  activation: neither WT or D3 MphR is activated
[1]
  activation of GFP expression under control of WT MphR: neither WT or D3 MphR is activated

## CC[C@H]1OC(=O)[C@H](C)[C@@H](O[C@H]2C[C@@](C)(OC)[C@@H](O)[C@H](C)O2)[C@H](C)[C@@H](O[C@@H]2O[C@H](C)C[C@H](N(C)C)[C@H]2O)[C@](C)(OC)C[C@@H](C)C(=O)/C(C)=C/[C@]1(C)O [Solithromycin biosynthetic intermediate]
[2]; FIG. 20
  detects the intermediate at concentrations as low as: 0.1 µM
[2]
  times more sensitive vs. WT: 52 times more
[1]; K1/2, FIG. 20
  EC50: 70.9 µM

## CC[C@H]1OC(=O)[C@H](C)[C@@H](O[C@@H]2O[C@H](C)C[C@H](N(C)C)[C@H]2O)[C@@H](C)C[C@@H](C)C(=O)/C=C/[C@H]1C [YC-17]
[2]
  EC50: 0.49 ± 0.05 µM
  times more sensitive vs. WT: 40 times more
[1]; K1/2, Table 12
  EC50: 19.6 ± 0.6 µM

## CC[C@H]1OC(=O)[C@H](C)[C@@H](O[C@H]2C[C@@](C)(OC)[C@@H](O)[C@H](C)O2)[C@H](C)[C@@H](O[C@@H]2O[C@H](C)C[C@H](N(C)C)[C@H]2O)[C@](C)(O)C[C@@H](C)CN(C)[C@H](C)[C@@H](O)[C@]1(C)O [azithromycin]
[3]
  activation: little to no activation
[1]; K1/2, Table 6
  EC50: 0.6 ± 0.02 µM
[1]; K1/2, Table 7
  EC50: 0.6 µM

## CC[C@H]1OC(=O)[C@H](C)[C@@H](O[C@H]2C[C@@](C)(OC)[C@@H](O)[C@H](C)O2)[C@H](C)[C@@H](O[C@@H]2O[C@H](C)C[C@H](N(C)C)[C@H]2O)[C@](C)(OC)C[C@@H](C)C(=O)[C@H](C)[C@@H](O)[C@]1(C)O [clarithromycin, 6-O-methylerythromycin]
[4]
  EC50: 12.7 µM
[5]
  EC50: 24.2 µM
  Hill coefficient: 3.03

## CC[C@H]1OC(=O)[C@H](C)[C@@H](O[C@H]2C[C@@](C)(OC)[C@@H](O)[C@H](C)O2)[C@H](C)[C@@H](O[C@@H]2O[C@H](C)C[C@H](N(C)C)[C@H]2O)[C@](C)(O)C[C@@H](C)C(=O)[C@H](C)[C@@H](O)[C@]1(C)O [erythromycin A]
[4]
  enhanced sensitivity: 2 fold
[5]
  Hill coefficient: 2.39
[6]; Table 1
  Cooperativity: 2.92 ± 0.17
[6]; Table 11
  times more sensitive vs. WT: 1.5 times more
[7]
  Hillc: 5.4 ± 1.2
[8]
  Cooperativity: 1.80 ± 0.01
[9]
  times more sensitive vs. WT: 3.6 times more
[10]; Table 4
  Hillc: 1.7 ± 0.1
[10]; Table 11
  times more sensitive vs. WT: 9.9 times more
[11]
  Cooperativity: 2.59 ± 0.04
[12]
  times more sensitive vs. WT: 2.0 times more
[1]; Table 1, derived from the Hill function
  Cooperativity: 4.44 ± 1.52
[1]; Table 4
  Hillc: 3.6 ± 0.3
[1]; Table 8
  Hill coefficient: 3.52
[1]; Table 9
  Cooperativity: 3.39
[1]
  activation of GFP expression under control of WT MphR: good activator
[13]; Table 1
  Cooperativity: 3.16 ± 0.13
[13]; Table 11
  times more sensitive vs. WT: 2.4 times more
[14]
  times more sensitive vs. WT: 3.0 times more
[15]
  Cooperativity: 2.84 ± 0.42
[16]
  Hillc: 3.9 ± 0.5

## CC[C@H]1OC(=O)[C@H](C)[C@@H](O[C@H]2C[C@@](C)(OC)[C@@H](O)[C@H](C)O2)[C@H](C)[C@@H](O[C@@H]2O[C@H](C)C[C@H](N(C)C)[C@H]2O)[C@](C)(O)C[C@@H](C)C(=O)[C@H](C)[C@@H](O)[C@H]1C [erythromycin B]
[1]; K1/2, Table 9
  EC50: 1.72 µM
[1]; Table 9
  Cooperativity: 1.99
[1]
  activation of GFP expression under control of WT MphR: activate MphR-WT in a nearly identical manner

## CC[C@H]1OC(=O)[C@H](C)[C@@H](O[C@H]2C[C@@](C)(O)[C@@H](O)[C@H](C)O2)[C@H](C)[C@@H](O[C@@H]2O[C@H](C)C[C@H](N(C)C)[C@H]2O)[C@](C)(O)C[C@@H](C)C(=O)[C@H](C)[C@@H](O)[C@]1(C)O [erythromycin C]
[1]
  activation of GFP expression under control of WT MphR: activate MphR-WT in a nearly identical manner

## CC[C@H]1OC(=O)[C@H](C)C(=O)[C@H](C)[C@@H](O[C@@H]2O[C@H](C)C[C@H](N(C)C)[C@H]2O)[C@@H](C)C[C@@H](C)C(=O)/C=C/[C@H]1C [narbomycin]
[1]; read-out: Activation ratio (5 uM/0 uM)
  fold induction at 5 µM: 4

## CC[C@H]1OC(=O)[C@H](C)C(=O)[C@H](C)[C@@H](O[C@@H]2O[C@H](C)C[C@H](N(C)C)[C@H]2O)[C@@H](C)C[C@@H](C)C(=O)/C=C/[C@]1(C)O [pikromycin]
[17]
  EC50: 50 ± 20 µM
[2]
  EC50: 0.81 ± 0.02 µM
  times more sensitive vs. WT: 118 times more
[10]
  EC50: 48 ± 5 µM
  sensitivity improved, compared to the wild-type MphR: 2 fold
[1]; K1/2, Table 5
  EC50: 97 ± 2 µM
[1]; K1/2, Table 14
  EC50: 96.6 ± 2.7 µM

## CC[C@H]1OC(=O)[C@H](C)[C@@H](O[C@H]2C[C@@](C)(OC)[C@@H](O)[C@H](C)O2)[C@H](C)[C@@H](O[C@@H]2O[C@H](C)C[C@H](N(C)C)[C@H]2O)[C@](C)(O)C[C@@H](C)/C(=N\OCOCCOC)[C@H](C)[C@@H](O)[C@]1(C)O [roxithromycin]
[3]
  activation: little to no activation
[1]; K1/2, Table 6
  EC50: 67.2 ± 3.41 µM
[1]; K1/2, Table 7
  EC50: 74.1 µM

From US12091718B2, “Genetically encoded biosensors for detection of polyketides” (priority 2016, dated 2024)
